Reference: patent US6858642B1, “Indole derivatives” (Neurim Pharmaceuticals (1991) Ltd., priority 1999, dated 2005)
Like-named read-outs stand apart in the source and are kept apart here.

Key:
[1] = Scavenging activity on DPPH radicals (antioxidant effect); details: 10 μM addition; decrease in A517 of DPPH after 20 min at room temperature
Method: Radical scavenging activity was assayed in duplicates according to Blois, M. S., Nature, 1958, 181:1199. The reaction mixture contained 3 ml of 01 mM DPPH (in 95% ethanol) and 0.5 ml of the test compound. After 20 min. incubation at room temperature A517 was determined. The scavenging activity was measured as the decrease in A517 of the DPPH radical expressed as a percentage of the control value.

[2] = tested on: adult castrated male rats; experiment: Androgen-dependent regrowth of ventral prostate and seminal vesicles in castrated rats, compounds given orally in drinking water; assay type: in vivo, rat; details: for Relative potency on testosterone-mediated prostate re-growth: comparison among compounds; for Dose dependence of the effect on prostate re-growth: 0.01 to 10 mg/l drinking water; for IC50: Rattus norvegicus, feed or water, read-out: IC50 on prostate re-growth
Text: The effects of orally administered compounds of the invention, MLP-76,77, 79 and 92, on androgen-dependent prostatal regrowth in adult castrated male rats was investigated Male rats (2.5 months old) were castrated under anesthesia and left to recover for 7 days. During this period, the average weight of the prostate decreased by approximately 75%. Beginning on day 7 after castration, the rats were given daily subcutaneous injections of either oil vehicle (control) or oil vehicle containing testosterone propionate (1 mg/kg body weight per day) for 4 days at 1 hour before lights off. […] In the morning following the last inject ion, the rats were sacrificed and the seminal vesicles and ventral prostates were removed and weighed.

[3] = Distribution of 125I-labelled compounds in organs of the adult male rat 1 h after ip injection; assay type: in vivo; details: retention pattern 1 h after ip injection
Method: The distribution of MLP-92 and MLP-77 in various organs of the rat was examined. 100 mcl saline containing 1×10^6 dpm ^125l-labelled compounds of the invention (labelling as described by Vakkuri et al., Acta Endocrinol., 106, 152-7, 1984) were injected (ip) to adult male rats. The rats were sacrificed 1 h after injection and various organs were dissected out and weighted. The contents of the radioactive derivatives in the rat organs (Brain, Hypothalamus, Pituitary, Eyes, Thyroid, Heart, Lungs, Kidneys. Spleen, Testis, Prostate and seminal vesicle) were determined using a gamma-counter and the results are presented as dpm/g organ wet-weight.

[4] = Table 2, 10 mg/l drinking water
[5] = Table 2, testosterone + compound 10 mg/l drinking water, 4 days
[6] = Table 3, 0.01 mg/l drinking water
[7] = Table 3, 0.1 mg/l drinking water
[8] = Table 3, testosterone + compound 0.01 mg/l drinking water
[9] = Table 3, testosterone + compound 0.1 mg/l drinking water
[10] = Table 2, testosterone propionate 1 mg/kg per day sc alone, 4 days
[11] = Table 3 (second group), testosterone propionate 1 mg/kg per day sc alone

Molecule | Relative ratio of scavenging activity compared with Vitamin E (tocopherol) [1] | A = % inhibition of testosterone-stimulated growth (prostate) [2, 4] [%] | B = % inhibition of testosterone-stimulated growth (seminal vesicles) [2, 4] [%] | Prostate (mg/g body weight) [2, 5] [mg/g body weight] | Seminal Vesicles (mg/g body weight) [2, 5] [mg/g body weight] | Accumulation in the prostate [3] | other results
O=C(O)C=Cc1ccc(O)c(O)c1 [Caffeic acid, 3,4-Dihydroxycinnamic acid] | 2.8 | – | – | – | – | – | –
COc1ccc2[nH]cc(CCNC(=O)c3ccco3)c2c1 [MLP-76, 5-Methoxy-3-(2-(2-furamido)ethyl)indole] | – | 66 | 44 | 0.49 ± 0.09 | 1.82 ± 0.25 | – | Relative potency on testosterone-mediated prostate re-growth ([2]; Table 2): more potent then MLP-79, MLP-77 and melatonin
COc1ccc2[nH]cc(CCNC(=O)c3ccccc3OC(C)=O)c2c1 [MLP-77] | – | 40 | −18 | 0.57 ± 0.05 | 2.69 ± 0.49 | selective accumulation | –
COc1ccc2[nH]cc(CCNC(=O)C3CCCO3)c2c1 (stereo not drawn) [MLP-79, 5-Methoxy-3-(2-(tetrahydro-2-furamido)ethyl)indole] | – | 54 | 23 | 0.50 ± 0.04 | 2.00 ± 0.39 | selective accumulation | –
COc1ccc2[nH]cc(CCNCC3CCCO3)c2c1 (stereo not drawn) [MLP-92, 5-Methoxy-3-(2-(tetrahydro2-furylmethylamino)ethyl)indole] | – | 66 | 51 | 0.49 ± 0.04 | 1.54 ± 0.21 | selective accumulation | Dose dependence of the effect on prostate re-growth [2]: dose-dependent; IC50 [2]: 88 nM; A = % inhibition of testosterone-stimulated growth (prostate) [2, 6]: 19%; B = % inhibition of testosterone-stimulated growth (seminal vesicles) [2, 6]: 28%; A = % inhibition of testosterone-stimulated growth (prostate) [2, 7]: 62%; B = % inhibition of testosterone-stimulated growth (seminal vesicles) [2, 7]: 37%; Prostate (mg/g body weight) [2, 8]: 0.57 ± 0.04 mg/g body weight; Seminal Vesicles (mg/g body weight) [2, 8]: 1.57 ± 0.25 mg/g body weight; Prostate (mg/g body weight) [2, 9]: 0.46 ± 0.1 mg/g body weight; Seminal Vesicles (mg/g body weight) [2, 9]: 1.45 ± 0.13 mg/g body weight; Relative potency on testosterone-mediated prostate re-growth ([2]; Table 2): more potent then MLP-79, MLP-77 and melatonin
COc1ccc2[nH]cc(CCNC(C)=O)c2c1 [Melatonin, reference compound] | – | 44 | 30 | 0.55 ± 0.08 | 1.88 ± 0.03 | – | Dose dependence of the effect on prostate re-growth [2]: dose-dependent; IC50 ([2]; dose-dependent effect, compound in drinking water): 230 nM; A = % inhibition of testosterone-stimulated growth (prostate) [2, 6]: −15%; B = % inhibition of testosterone-stimulated growth (seminal vesicles) [2, 6]: 10%; A = % inhibition of testosterone-stimulated growth (prostate) [2, 7]: 31%; B = % inhibition of testosterone-stimulated growth (seminal vesicles) [2, 7]: 30%; Prostate (mg/g body weight) [2, 8]: 0.66 ± 0.08 mg/g body weight; Seminal Vesicles (mg/g body weight) [2, 8]: 1.81 ± 0.28 mg/g body weight; Prostate (mg/g body weight) [2, 9]: 0.54 ± 0.09 mg/g body weight; Seminal Vesicles (mg/g body weight) [2, 9]: 1.55 ± 0.24 mg/g body weight; Effect on testosterone-mediated re-growth of the ventral prostate gland ([2]; in the presence of testosterone (Table 2)): decreased significantly
CCC(=O)O[C@H]1CC[C@H]2[C@@H]3CCC4=CC(=O)CC[C@]4(C)[C@H]3CC[C@]12C [Testosterone, testosterone propionate, reference compound] | – | – | – | – | – | – | Prostate (mg/g body weight) [2, 10]: 0.77 ± 0.02 mg/g body weight; Seminal Vesicles (mg/g body weight) [2, 10]: 2.38 ± 0.16 mg/g body weight; Prostate (mg/g body weight) [2, 11]: 0.62 ± 0.1 mg/g body weight; Seminal Vesicles (mg/g body weight) [2, 11]: 1.95 ± 0.24 mg/g body weight
O=C1O[C@H]([C@@H](O)CO)C(O)=C1O [Vitamin C (ascorbic acid), ascorbic acid] | 1 | – | – | – | – | – | –
COc1ccc2[nH]cc(CCNC(=O)/C=C/c3ccc(O)c(O)c3)c2c1 [caffeic acid 5-methoxytryptamide, Caffeic Acid 5-Methoxytryptamide] | 3.2 | – | – | – | – | – | –
tocopherol [Vitamin E (tocopherol)] | 1 | – | – | – | – | – | –
